Assay results from patent EP4335840A1, “NEW CONTRAST AGENTS FOR USE IN DIAGNOSTIC IMAGING” (priority 2022, dated 2024).

Experiments:
[1] = Relaxivity measurements at 1.41 T in water and human plasma; assay type: physicochemical; conditions: 37°C, normalized to Gd
Description: Relaxivity measurements at 1.41 T were performed using a MiniSpec mq60 spectrometer (Bruker Analytik, Karlsruhe, Germany) operating at a resonance frequency of 60 MHz and a temperature of 37°C. The T1 relaxation times were determined using the standard inversion recovery (IR) method with a fixed relaxation delay of at least 5 × T1. The variable inversion time (TI) was calculated automatically by the standard software of the MiniSpec mq60 (8 steps). The T2 measurements were performed by using a Carr-Purcell-Meiboom-Gill (CPMG) pulse sequence, applying a relaxation delay of at least 5 × T1.
Each relaxivity measurement was performed using three different Gd concentrations (3 concentrations between 0.05 and 2 mM). The T1 and T2 relaxation times of the example compounds 1 to 10 were measured in different media for example in water and human plasma. Human plasma preparation: For each experiment fresh blood was taken from a volunteer using 10 mL citrate-tubes (Sarstedt S-Monovette 02.1067.001, 10 mL, Citrate). The 10 mL citrate-tubes were carefully inverted 10 times to mix blood and anticoagulant and centrifuged for 15min at 1811 g at RT (Eppendorf, Centrifuge 5810R).
The relaxivities ri (where i=1, 2) were calculated based on the measured relaxation rates Ri in water and plasma: ri = (Ri−Ri(0))/CGd [formula] where Ri(0) represent the relaxation rate of the respective solvent and CGd the concentration of the compound normalized to the Gadolinium. The Gadolinium concentrations of the investigated solutions were verified by Inductively Coupled Plasma Mass Spectrometry (ICP-MS Agilent 7500a, Waldbronn, Germany). Table 3: Relaxivities of investigated compounds in water and human plasma at 1.41 T and relaxivities of Reference compounds 1-3 (RC1-RC3) at 1.5 T in water and bovine plasma. All values are measured at 37°C and normalized to Gd and given in L mmol-1 s-1.

OATP1B1 = molecular target: T1, OATP1B1 (Homo sapiens, UniProt Q9Y6L6); assay: Uptake into stable transfected OATP1B1 HEK 293 cells; assay type: cell-based; conditions: OATP1B1-HEK 293 cell uptake with Rifampicine
T1 sequence (Q9Y6L6 1-691): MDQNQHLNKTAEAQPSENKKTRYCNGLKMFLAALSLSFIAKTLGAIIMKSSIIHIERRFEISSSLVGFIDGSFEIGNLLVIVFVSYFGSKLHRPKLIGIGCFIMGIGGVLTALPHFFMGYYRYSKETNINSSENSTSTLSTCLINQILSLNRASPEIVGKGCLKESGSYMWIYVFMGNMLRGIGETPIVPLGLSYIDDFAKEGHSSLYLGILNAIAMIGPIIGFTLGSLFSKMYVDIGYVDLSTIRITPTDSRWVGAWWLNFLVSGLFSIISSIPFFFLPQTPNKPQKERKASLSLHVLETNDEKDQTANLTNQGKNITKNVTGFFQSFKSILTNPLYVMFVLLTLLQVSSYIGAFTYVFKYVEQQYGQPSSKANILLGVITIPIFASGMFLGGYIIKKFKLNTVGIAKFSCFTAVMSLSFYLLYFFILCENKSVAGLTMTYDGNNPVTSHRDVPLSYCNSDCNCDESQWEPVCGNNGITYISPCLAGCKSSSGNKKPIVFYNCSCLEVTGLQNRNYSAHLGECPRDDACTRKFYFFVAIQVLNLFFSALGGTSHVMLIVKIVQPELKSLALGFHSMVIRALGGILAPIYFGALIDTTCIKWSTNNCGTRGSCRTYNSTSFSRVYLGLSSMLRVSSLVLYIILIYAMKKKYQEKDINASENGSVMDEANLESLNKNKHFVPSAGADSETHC

OATP1B3 = molecular target: T2, OATP1B3 (Homo sapiens, UniProt Q9NPD5); assay: Uptake into stable transfected OATP1B3 HEK 293 cells; assay type: cell-based; conditions: OATP1B3-HEK 293 cell uptake with Rifampicine
T2 sequence (Q9NPD5 1-702): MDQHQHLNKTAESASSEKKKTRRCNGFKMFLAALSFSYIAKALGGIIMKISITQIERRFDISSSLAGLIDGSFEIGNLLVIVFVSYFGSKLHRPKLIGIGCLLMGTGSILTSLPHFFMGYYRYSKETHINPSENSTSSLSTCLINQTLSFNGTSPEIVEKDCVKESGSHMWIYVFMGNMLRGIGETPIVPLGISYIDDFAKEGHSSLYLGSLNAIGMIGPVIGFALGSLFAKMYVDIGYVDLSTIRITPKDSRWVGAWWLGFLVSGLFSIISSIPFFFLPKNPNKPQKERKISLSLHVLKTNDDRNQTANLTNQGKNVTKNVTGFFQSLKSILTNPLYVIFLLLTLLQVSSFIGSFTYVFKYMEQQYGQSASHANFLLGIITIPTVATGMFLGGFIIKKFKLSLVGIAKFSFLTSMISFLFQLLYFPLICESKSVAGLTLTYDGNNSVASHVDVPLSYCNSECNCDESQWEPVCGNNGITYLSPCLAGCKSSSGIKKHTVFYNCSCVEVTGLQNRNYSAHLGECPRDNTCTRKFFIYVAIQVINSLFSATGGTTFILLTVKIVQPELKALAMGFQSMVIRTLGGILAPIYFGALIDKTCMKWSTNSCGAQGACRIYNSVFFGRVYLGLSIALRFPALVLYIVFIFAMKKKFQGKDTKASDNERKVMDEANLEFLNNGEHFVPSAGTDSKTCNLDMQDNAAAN

[2] = tested on: freshly isolated rat hepatocytes; assay: Uptake into freshly isolated rat hepatocytes; conditions: for Uptake rat hepatocytes: 100 µmol Gd/L, 10 min, 37°C, relative to RC1 (Gd-EOB-DTPA); for Inhibition Rifampicine: rat hepatocyte uptake with OATP1B1/1B3 inhibitor Rifampicine, test item and inhibitor each 100 µM
Description: The rat hepatocytes were incubated (2.5 ·10^5 cells/well) for 2.5 to 4h in collagen coated 24-well plates (Fa. Beckton Dickinson Biocoat, cell environments, Collagen I Cellware) in Williams E-medium (Fa. Sigma W1878) in an incubator (37°C, 5% CO2 and 95% oxygen). After incubation the adherent hepatocytes were washed once with 37°C Hepes carbonate transport buffer (500 µL/well). The test items and RC1 were prepared from stock solutions (180 to 500 mM concentration) in Hepes carbonate transport buffer at pH 7.4 to reach a final concentration of 100 µmοl Gd/L. The specific uptake of the test item or RC1 into rat hepatocytes via OATP1 B1 and OATP1 B3 was challenged using a known OATP1B1/1B3 inhibitor (Rifampicine, Fa. Sigma R3501, test item and inhibitor 1:1 each 100 µM final concentration). The prepared rat hepatocyte plates were incubated with test solutions (500 µL/well) at 37°C for 10 min using a thermoshaker (Fa. Grant Bio, PHMP). Triplicates were performed for each test item. After incubating the cells were washed once with cold PBS buffer (Fa. Gibco, Dulbeccos PBS (+)). After washing the intact hepatocytes were lysed by addition of 500 µL cold 0.01 % Triton-X 100 in Millipore water for 1h. […] After 1h 500 µL of 10 nM Terbium ICP-MS standard was added in 2% nitric acid and 0.01% Triton 100 before the Gadolinium concentrations in the lysate were measured using ICP-MS (Agilent 8900, singleQuad, integr. Time 0.3 s, no gas, 5 replicates, Gd m/z 157, Tb m/z 159). As a reference standard RC1 is used in the same well plate. The hepatocyte uptake of the test compound is calculated relative to RC1 (resulting in the unit % of RC1).

Substance	r1 human plasma [1]	r1 water [1]	Inhibition Rifampicine (OATP1B1)	Inhibition Rifampicine (OATP1B3)	Uptake rat hepatocytes [2]	Inhibition Rifampicine [2]
Gadolinium-2,2',2"-[10-(carboxymethyl)-2-(4-ethoxybenzyl)-1,4,7,10-tetraazacyclododecane-1,4,7-triyl]triacetate [Example 8]	6.5 L/mmol/s	4.7 L/mmol/s	75 % inhibition	99 % inhibition	143 % of RC1	96 % inhibition
Gadolinium-2,2',2"-[10-(carboxymethyl)-2-(4-ethoxybenzyl)-1,4,7,10-tetraazacyclododecane-1,4,7-triyl]triacetate [Example 9]	5.6 L/mmol/s	4.3 L/mmol/s	23 % inhibition	94 % inhibition	42 % of RC1	93 % inhibition
Gadolinium-2,2',2"-[(2S)-2-(4-butoxybenzyl)-10-(carboxymethyl)-1,4,7,10-tetraaza cyclododecane-1,4,7-triyl]triacetate [Example 12]	8.8 L/mmol/s	4.7 L/mmol/s	81 % inhibition	98 % inhibition	110 % of RC1	96 % inhibition
Gadolinium-2,2',2"-[(2S)-2-(4-butoxybenzyl)-10-(carboxymethyl)-1,4,7,10-tetraaza cyclododecane-1,4,7-triyl]triacetate [Example 13]	9.8 L/mmol/s	5.3 L/mmol/s	88 % inhibition	98 % inhibition	137 % of RC1	86 % inhibition
Gadolinium-2,2',2"-[(2S)-10-(carboxymethyl)-2-(4-ethoxybenzyl)-1,4,7,10-tetraazacyclododecane-1,4,7-triyl]triacetate [Example 10]	6.4 L/mmol/s	4.8 L/mmol/s	73 % inhibition	96 % inhibition	104 % of RC1	96 % inhibition
Gadolinium-2,2',2"-[(2S)-10-(carboxymethyl)-2-(4-ethoxybenzyl)-1,4,7,10-tetraazacyclododecane-1,4,7-triyl]triacetate [Example 11]	6.2 L/mmol/s	4.4 L/mmol/s	64 % inhibition	90 % inhibition	49 % of RC1	96 % inhibition
